Assays:
human SLC26A3 = target: T1, human SLC26A3 (Homo sapiens, UniProt P40879); assay: SCN− transport YFP quenching assay in SLC26A3-expressing COS7 cells; type: cell-based; conditions: 25 μM, 30 min; 70 mM SCN− gradient
T1 construct: host or cells: COS7 fibroblasts, transient (Lipofectamine 2000), with EYFP-HIF
T1 sequence (P40879 1-764): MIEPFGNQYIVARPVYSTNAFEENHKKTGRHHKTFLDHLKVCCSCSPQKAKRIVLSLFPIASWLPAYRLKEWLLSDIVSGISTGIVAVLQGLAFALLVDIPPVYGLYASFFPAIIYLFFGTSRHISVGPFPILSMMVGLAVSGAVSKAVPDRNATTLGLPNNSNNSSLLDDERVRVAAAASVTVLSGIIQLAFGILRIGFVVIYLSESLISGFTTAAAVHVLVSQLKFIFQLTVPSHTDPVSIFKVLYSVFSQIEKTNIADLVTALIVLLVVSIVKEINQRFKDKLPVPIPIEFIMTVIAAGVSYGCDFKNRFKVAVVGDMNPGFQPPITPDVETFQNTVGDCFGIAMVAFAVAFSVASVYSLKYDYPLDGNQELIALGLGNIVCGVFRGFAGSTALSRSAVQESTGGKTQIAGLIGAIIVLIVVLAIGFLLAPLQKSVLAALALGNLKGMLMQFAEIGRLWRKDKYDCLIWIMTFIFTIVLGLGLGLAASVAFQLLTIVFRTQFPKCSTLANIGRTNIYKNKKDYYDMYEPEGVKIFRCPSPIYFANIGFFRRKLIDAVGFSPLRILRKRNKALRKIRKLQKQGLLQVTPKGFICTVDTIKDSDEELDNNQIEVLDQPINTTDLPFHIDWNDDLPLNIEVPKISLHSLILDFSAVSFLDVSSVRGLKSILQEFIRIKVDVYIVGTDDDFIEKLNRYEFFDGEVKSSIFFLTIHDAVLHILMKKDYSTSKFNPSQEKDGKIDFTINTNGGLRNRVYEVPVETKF
Experimental: SLC26A3 activity was measured using a SCN^− transport assay that produced YFP fluorescence quenching (FIG. 4B).
SLC26A3-mediated ion transport was measured in COS7 fibroblasts transiently transfected to express EYFP-HIF and human SLC26A3 (Origene, Rockville, Md.). COS7 cells were cultured in DMEM-H21 supplemented with 10% FBS, 2 mM glutamine, 100 U/ml penicillin and […] streptomycin and transfected using Lipofectamine 2000 (Invitrogen, Carlsbad, Calif.). SLC26A3-mediated transport was measured from EYFP-HIF fluorescence after addition of a NaSCN-substituted PBS solution to generate a 70 mM SCN^− gradient. Control experiments were done using COS-7 cells expressing EYFP-HIF alone.

[1] = test system: chronically furosemide-treated mice; assay: Chronic furosemide treatment model in mice; type: in vivo; conditions: 10 mg/kg after 8 days furosemide 20 mg/kg twice a day, 3 h urine
Experimental: Because chronic loop diuretic treatment upregulates renal pendrin expression, which might potentiate the diuretic efficacy of pendrin inhibition, the action of PDSinh-C01 in a chronic furosemide treatment model.
In chronic studies, mice were injected with 20 mg/kg furosemide (ip) twice a day for 8 days and then administered PDSinh-C01 (10 mg/kg) or vehicle at the time of the final furosemide dose. Urine was collected for 3 h as described above.
After 8 days of furosemide treatment, PDSinh-C01 further potentiated the furosemide effect.

Cn1nc(COc2cccc(F)c2)c2c1CCN(C(=O)Nc1ccc(Cl)cc1)C2 [PDSinh-A01]
inhibition of SLC26A3 SCN− transport (YFP quenching) (human SLC26A3): not significantly inhibited

Cc1n[nH]c(-c2cc(S(=O)(=O)NC3CCCc4ccccc43)c(C)s2)c1C (centres unmarked) [PDSinh-C01]
increase in urine volume [1]: ~60%

Source: patent US10702506B2, “Small molecule inhibitors of pendrin ion exchange and pharmaceutical compositions” (THE REGENTS OF THE UNIVERSITY OF CALIFORNIA, priority 2016, dated 2020)
